The source made the active and inactive calls. The calls are words filed in the database; no cut-off is given here.
Columns and labels:
CCRF-CEM [1] = assay: Cytotoxicity against human CCRF-CEM cells assessed as reduction in cell viability at 25 uM incubated for 72 hrs by MTT assay; format: functional
H9c2 [2] = assay: Cytotoxicity against rat H9c2 cells assessed as reduction in cell viability at 5 to 25 uM incubated upto 96 hrs by MTT assay; format: cell-based; settings: h9c2, 96 h, dose 5-25 µM
Rattus norvegicus = species on record: Rattus norvegicus; assay: Drug uptake in nucleus of rat H9c2 cells measured after 24 hrs by DAPI staining based confocal microscopy analysis; format: ADME, cell-based; settings: h9c2, 24 h
H9c2 [3] = assay: Cytotoxicity against rat H9c2 cells assessed as reduction in cell viability at 5 uM incubated for 96 hrs by MTT assay; format: cell-based; settings: h9c2, 96 h
[4] = Drug uptake in nucleus of human SK-OV-3 cells incubated for 3 hrs by fluorescence microscopy; format: ADME, subcellular; settings: sk-ov-3, 3 h
LLC-PK1 [5] = assay: Cytotoxicity against pig LLC-PK1 cells assessed as reduction in cell viability at 5 uM incubated for 72 hrs by MTT assay; format: cell-based, Sus scrofa; settings: llc-pk1, 72 h
H9c2 [6] = assay: Cytotoxicity against rat H9c2 cells assessed as reduction in cell viability at 5 uM incubated for 72 hrs by MTT assay; format: cell-based; settings: h9c2, 72 h
AGS [7] = assay: Cytotoxicity against human AGS cells assessed as reduction in cell viability at 5 uM incubated for 72 hrs by MTT assay; format: functional
AGS [8] = assay: Cytotoxicity against human AGS cells assessed as reduction in cell viability at 5 uM incubated for 24 hrs by MTT assay; format: functional
SK-OV-3 [9] = assay: Cytotoxicity against human SK-OV-3 cells assessed as reduction in cell viability at 5 uM incubated for 72 hrs by MTT assay; format: functional
CCRF-CEM [10] = assay: Cytotoxicity against human CCRF-CEM cells assessed as reduction in cell viability at 5 uM incubated for 72 hrs by MTT assay; format: functional
CCRF-CEM [11] = assay: Cytotoxicity against human CCRF-CEM cells assessed as reduction in cell viability at 5 uM incubated for 24 hrs by MTT assay; format: functional
H9c2 [12] = assay: Cytotoxicity against rat H9c2 cells assessed as change in cell morphology at 5uM measured after 72 hours; format: cell-based; settings: h9c2, 72 h
H9c2 [13] = assay: Cytotoxicity against rat H9c2 cells assessed as reduction in cell viability at 5 uM incubated for 24 hrs by MTT assay; format: cell-based; settings: h9c2, 24 h
MDA-MB-231 [14] = assay: Cytotoxicity against wild type human MDA-MB-231 cells assessed as reduction in cell viability incubated for 72 hrs by MTT assay; format: functional; settings: read-out: LC50 (the source's name)
MDA-MB-231 [15] = assay: Cytotoxicity against doxorubicin resistant human MDA-MB-231 cells assessed as reduction in cell viability incubated for 72 hrs by MTT assay; format: functional; settings: read-out: LC50 (the source's name)
MES-SA = assay: Cytotoxicity against human MES-SA cells assessed as reduction in cell viability incubated for 72 hrs by MTT assay; format: functional; settings: read-out: LC50 (the source's name)
LLC-PK1 [16] = assay: Cytotoxicity against pig LLC-PK1 cells assessed as reduction in cell viability at 5 uM incubated for 24 hrs by MTT assay; format: cell-based, Sus scrofa; settings: llc-pk1, 24 h
SK-OV-3 [17] = assay: Cytotoxicity against human SK-OV-3 cells assessed as reduction in cell viability at 5 uM incubated for 24 hrs by MTT assay; format: functional
CCRF-CEM [18] = assay: Cytotoxicity against human CCRF-CEM cells assessed as reduction in cell viability at 5 to 10 uM after 72 hrs incubation by MTT assay; format: functional; settings: dose 5-10 µM
AGS [19] = assay: Cytotoxicity against human AGS cells assessed as reduction in cell viability at 50 uM incubated for 72 hrs by MTT assay; format: functional
SK-OV-3 [20] = assay: Cytotoxicity against human SK-OV-3 cells assessed as reduction in cell viability at 25 uM incubated for 72 hrs by MTT assay; format: functional
CCRF-CEM [21] = assay: Cytotoxicity against human CCRF-CEM cells assessed as reduction in cell viability at 25 uM incubated for 24 hrs by MTT assay; format: functional
SK-OV-3 [22] = assay: Cytotoxicity against human SK-OV-3 cells assessed as reduction in cell viability at 5 to 25 uM incubated for 24 hrs by MTT assay; format: functional; settings: dose 5-25 µM
AGS [23] = assay: Cytotoxicity against human AGS cells assessed as reduction in cell viability at 5 to 10 uM incubated for 24 to 72 hrs by MTT assay; format: functional, cell-based; settings: dose 5-10 µM, time 24-72 hrs
AGS [24] = assay: Cytotoxicity against human AGS cells assessed as reduction in cell viability at 25 uM incubated for 72 hrs by MTT assay; format: functional
LLC-PK1 [25] = assay: Cytotoxicity against pig LLC-PK1 cells assessed as reduction in cell viability at 5 to 50 uM incubated for 72 hrs by MTT assay; format: cell-based, Sus scrofa; settings: llc-pk1, 72 h, dose 5-50 µM
LLC-PK1 [26] = assay: Cytotoxicity against pig LLC-PK1 cells assessed as reduction in cell viability at 50 uM after 24 hrs of incubation by MTT assay; format: cell-based, Sus scrofa; settings: llc-pk1, 24 h
[27] = Drug uptake in nucleus of human MDA-MB-231 cells by confocal microscopy in the presence of 6 ug/mL chloroquine; format: ADME, subcellular
[28] = Stability of compound in 10% FBS assessed as parent compound remaining after 24 hrs by HPLC analysis; format: ADME; settings: cattle, 10% FBS (fetal bovine serum), read-out: Stability
SK-OV-3 [29] = assay: Cytotoxicity against human SK-OV-3 cells assessed as reduction in cell viability at 10 uM incubated for 72 hrs by MTT assay; format: functional
LLC-PK1 [30] = assay: Cytotoxicity against pig LLC-PK1 cells assessed as reduction in cell viability at 10 uM incubated for 24 to 72 hrs by MTT assay; format: cell-based, Sus scrofa; settings: llc-pk1, 10 µM, time 24-72 hrs
[31] = Drug uptake in human SK-OV-3 cells assessed as doxorubicin fluorescence incubated for 3 hrs by fluorescence microscopy; format: ADME, cell-based; settings: sk-ov-3, 3 h
[32] = Drug uptake in human MDA-MB-231 cells by flow cytometry in the presence of 100 uM chloroquine; format: ADME, cell-based
[33] = Drug uptake in nucleus of human MDA-MB-231 cells by confocal microscopy in the presence of 20 ug/mL chlorpromazine; format: ADME, subcellular
H9c2 [34] = assay: Cytotoxicity against rat H9c2 cells assessed as reduction in cell viability at 5 to 10 uM incubated upto 96 hrs by MTT assay; format: cell-based; settings: h9c2, 96 h, dose 5-10 µM
LLC-PK1 [35] = assay: Cytotoxicity against pig LLC-PK1 cells assessed as reduction in cell viability at 50 uM by MTT assay; format: cell-based, Sus scrofa; settings: llc-pk1, 50 µM
H9c2 [36] = assay: Cytotoxicity against rat H9c2 cells assessed as reduction in cell viability at 25 uM incubated for 24 hrs by MTT assay; format: cell-based; settings: h9c2, 24 h
AGS [37] = assay: Cytotoxicity against human AGS cells assessed as reduction in cell viability at 5 to 10 uM incubated for 24 hrs by MTT assay; format: functional, cell-based; settings: dose 5-10 µM
[38] = Drug uptake in human MDA-MB-231 cells by flow cytometry in the presence of 30 uM chlorpromazine; format: ADME, cell-based
CCRF-CEM [39] = assay: Cytotoxicity against human CCRF-CEM cells assessed as reduction in cell viability at 5 to 25 uM after 72 hrs incubation by MTT assay; format: functional; settings: dose 5-25 µM
[40] = Drug uptake in nucleus of human MDA-MB-231 cells by confocal microscopy in the presence of 50 ug/mL nystatin; format: ADME, subcellular
[41] = Drug uptake in human MDA-MB-231cells by flow cytometry in the presence of 50 ug/mL nystatin; format: ADME
H9c2 [42] = assay: Cytotoxicity against rat H9c2 cells assessed as reduction in cell viability at 25 uM incubated for 72 hrs by MTT assay; format: cell-based; settings: h9c2, 72 h
[43] = Drug uptake in human MDA-MB-231 cells by flow cytometry in the presence of 2.5 mM methyl-beta-cyclodextrin; format: ADME, cell-based
CCRF-CEM [44] = assay: Cytotoxicity against human CCRF-CEM cells assessed as reduction in cell viability at 5 to 10 uM incubated for 24 hrs by MTT assay; format: functional, cell-based; settings: dose 5-10 µM
[45] = Drug uptake in human SK-OV-3 cells at 5 uM incubated for 24 hrs by fluorescence microscopy; format: ADME, cell-based; settings: sk-ov-3, 24 h
[46] = Protein binding in 20% FBS by HPLC analysis; format: ADME, cell-free, Bos taurus; settings: cattle, serum
[47] = Drug uptake in nucleus of human MDA-MB-231 cells by confocal microscopy in the presence of 50 ug/mL genistein; format: ADME, subcellular
[48] = Drug uptake in rat H9c2 cells assessed as doxorubicin fluorescence measured at 24 to 72 hrs by fluorescence microscopy analysis; format: ADME, cell-based; settings: time 24-72 hrs
H9c2 [49] = assay: Cytotoxicity against rat H9c2 cells assessed as reduction in cell viability at 25 uM incubated for 96 hrs by MTT assay; format: cell-based; settings: h9c2, 96 h
AGS [50] = assay: Cytotoxicity against human AGS cells assessed as reduction in cell viability incubated for 72 hrs by MTT assay; format: functional

COc1cccc2c1C(=O)c1c(O)c3c(c(O)c1C2=O)C[C@@](O)(C(=O)CO)C[C@@H]3O[C@H]1C[C@H](NC(=N)CCCSSC[C@H](NC(C)=O)C(=O)N[C@@H](Cc2c[nH]c3ccccc23)C(=O)N[C@@H](Cc2c[nH]c3ccccc23)C(=O)N[C@@H](Cc2c[nH]c3ccccc23)C(=O)N[C@@H](Cc2c[nH]c3ccccc23)C(=O)N[C@@H](Cc2c[nH]c3ccccc23)C(=O)N[C@@H](Cc2c[nH]c3ccccc23)C(=O)N[C@@H](Cc2c[nH]c3ccccc23)C(=O)NCCCC[C@@H]2NC(=O)[C@H](CCCNC(=N)N)NC(=O)[C@H](CCCNC(=N)N)NC(=O)[C@H](CCCNC(=N)N)NC(=O)[C@H](CCCNC(=N)N)NC(=O)[C@H](CCCNC(=N)N)NC2=O)[C@H](O)[C@H](C)O1
Activity (CCRF-CEM [1]): 79%
Activity (H9c2 [2]): Non-Toxic

COc1cccc2c1C(=O)c1c(O)c3c(c(O)c1C2=O)C[C@@](O)(C(=O)CO)C[C@@H]3O[C@H]1C[C@H](N)[C@H](O)[C@H](C)O1 [DOXORUBICIN]
Drug uptake (Rattus norvegicus): Active
Activity (H9c2 [3]): 44%
Drug uptake [4]: Active
Activity (LLC-PK1 [5]): 77%
Activity (H9c2 [6]): 44%
Activity (AGS [7]): 87%
Activity (AGS [8]): 46%
Activity (SK-OV-3 [9]): 33%
Activity (CCRF-CEM [10]): 85%
Activity (CCRF-CEM [11]): 52%
Activity (H9c2 [12]): Toxic
Activity (H9c2 [13]): 20%
CC50 (MDA-MB-231 [14]): 0.45 µM
CC50 (MDA-MB-231 [15]): 2.3 µM
CC50 (MES-SA): 4.3 µM
Activity (LLC-PK1 [16]): 64%
Activity (SK-OV-3 [17]): 27%

N=C(N)NCCC[C@@H]1NC(=O)[C@H](CCCCNC(=O)[C@H](Cc2c[nH]c3ccccc23)NC(=O)[C@H](Cc2c[nH]c3ccccc23)NC(=O)[C@H](Cc2c[nH]c3ccccc23)NC(=O)[C@H](Cc2c[nH]c3ccccc23)NC(=O)[C@H](Cc2c[nH]c3ccccc23)NC(=O)[C@H](Cc2c[nH]c3ccccc23)NC(=O)[C@H](Cc2c[nH]c3ccccc23)NC(=O)CCN)NC(=O)[C@H](CCCNC(=N)N)NC(=O)[C@H](CCCNC(=N)N)NC(=O)[C@H](CCCNC(=N)N)NC(=O)[C@H](CCCNC(=N)N)NC1=O
Activity (CCRF-CEM [18]): 10%
Activity (AGS [19]): 87%
Activity (SK-OV-3 [20]): 19%
Activity (CCRF-CEM [21]): 68%
Activity (SK-OV-3 [22]): 21%
Activity (AGS [23]): inactive
Activity (AGS [24]): 24%
Activity (LLC-PK1 [25]): Non-Toxic
Activity (LLC-PK1 [26]): 71%

COc1cccc2c1C(=O)c1c(O)c3c(c(O)c1C2=O)C[C@@](O)(C(=O)COC(=O)CCCC(=O)NCCC(=O)N[C@@H](Cc1c[nH]c2ccccc12)C(=O)N[C@@H](Cc1c[nH]c2ccccc12)C(=O)N[C@@H](Cc1c[nH]c2ccccc12)C(=O)N[C@@H](Cc1c[nH]c2ccccc12)C(=O)N[C@@H](Cc1c[nH]c2ccccc12)C(=O)N[C@@H](Cc1c[nH]c2ccccc12)C(=O)N[C@@H](Cc1c[nH]c2ccccc12)C(=O)NCCCC[C@@H]1NC(=O)[C@H](CCCNC(=N)N)NC(=O)[C@H](CCCNC(=N)N)NC(=O)[C@H](CCCNC(=N)N)NC(=O)[C@H](CCCNC(=N)N)NC(=O)[C@H](CCCNC(=N)N)NC1=O)C[C@@H]3O[C@H]1C[C@H](N)[C@H](O)[C@H](C)O1
Drug uptake [27]: Active
remaining at 24 h [28]: 25%
Activity (SK-OV-3 [29]): 39%
Activity (LLC-PK1 [30]): Non-Toxic
Drug uptake [31]: Not Active
Drug uptake [32]: Active
Activity (SK-OV-3 [20]): 48%
Drug uptake [33]: Active
Activity (CCRF-CEM [21]): 64%
Activity (H9c2 [34]): Non-Toxic
Activity (SK-OV-3 [9]): 29%
Activity (LLC-PK1 [35]): 33%
CC50 (MDA-MB-231 [14]): 0.56 µM
Activity (H9c2 [36]): 68%
Activity (AGS [37]): inactive
Drug uptake [38]: 78%
CC50 (MDA-MB-231 [15]): 36 µM
CC50 (MES-SA): 41 µM
Activity (CCRF-CEM [39]): 84%
Drug uptake [40]: Active
Drug uptake [41]: Active
Activity (H9c2 [42]): 37%
Drug uptake [43]: 72%
Activity (CCRF-CEM [44]): Active
Drug uptake [45]: Active
Activity [46]: Active
Drug uptake [47]: Active
Drug uptake [48]: Not Active
Activity (H9c2 [49]): 39%
Activity (AGS [50]): 73%

From ChEMBL document CHEMBL5036344, “Design and application of hybrid cyclic-linear peptide-doxorubicin conjugates as a strategy to overcome doxorubicin resistance and toxicity” (Eur J Med Chem, 2021)
